30 compounds from patent US20050101595A1, “N-containing cycloalkyl-substituted amino-thiazole derivatives and pharmaceutical compositions for inhibiting cell proliferation and methods for their use” (PFIZER INC., priority 2003, published 2005) can be followed below.

SMILES strings stand for the structures. Like-named read-outs stand apart in the source and are kept apart here.

In test [1] the target is human CDK4 and genetically truncated (1-264) cyclin D3 (Homo sapiens, UniProt P11802). In words: Inhibition of CDK4/Cyclin D Retinoblastoma Kinase Activity. The test is classed as biochemical. To be noted: apparent Ki, CDK4/truncated cyclin D3, Rb fragment substrate, 25 μM ATP. On the procedure:
Cyclin-dependent kinase activity was measured by quantifying the enzyme-catalyzed, time-dependent incorporation of radioactive phosphate from [^32P]ATP or [^33P]ATP into a protein substrate. Unless noted otherwise, assays were performed in 96-well plates in a total volume of 50 μL, in the presence of 10 mM HEPES (N-[2-hydroxyethyl]piperazine-N′-[2-ethanesulfonic acid]) (pH 7.4), 10 mM MgCl2, 25 μM adenosine triphosphate (ATP), 1 mg/mL ovalbumin, 5 μg/mL leupeptin, 1 mM dithiothreitol, 10 mM β-glycerophosphate, 0.1 mM sodium vanadate, 1 mM sodium fluoride, 2.5 mM ethylene glycol-bis(β-aminoethyl ether)-N,N,N′N′-tetraacetic acid (EGTA), 2% (v/v) dimethylsulfoxide, and 0.03-0.4 μCi [^32/33P]ATP per reaction. Reactions were initiated with enzyme, incubated at 30° C., and terminated after 20 minutes by the addition of ethylenediaminetetraacetic acid (EDTA) to 250 mM. The phosphorylated substrate was then captured on a nitrocellulose or phosphocellulose membrane using a 96-well filtration manifold, and unincorporated radioactivity was removed by repeated washing with 0.85% phosphoric acid. Radioactivity was quantified by exposing the dried membranes to a phosphorimager.
Inhibition was measured relative to control wells that contained all reaction components including 2% (v/v) DMSO but no compound, after subtraction of background radioactivity measured in the absence of enzyme. Apparent Ki values of discrete compounds were measured by assaying enzyme activity in the presence of different inhibitor compound concentrations and subtracting the background radioactivity measured in the absence of enzyme. The kinetic parameters (kcat, Km for ATP) were measured for each enzyme under the usual assay conditions by determining the dependence of initial rates on ATP concentration. Inhibition data were fit to an equation for competitive inhibition using Kaleidagraph (Synergy Software), or were fit to an equation for competitive tight-binding inhibition using the software KineTic (BioKin, Ltd.).
Inhibition of CDK4/Cyclin D Retinoblastoma Kinase Activity:
A complex of human CDK4 and genetically truncated (1-264) cyclin D3 was purified using traditional biochemical chromatographic techniques from insect cells that had been co-infected with the corresponding baculovirus expression vectors (see e.g., Meijer and Kim, “Chemical Inhibitors of Cyclin-Dependent Kinases,” Methods in Enzymol,. vol. 283 (1997), pp. 113-128.). The enzyme complex (5 nM) was assayed with 0.3-0.5 μg of purified recombinant retinoblastoma protein fragment (Rb) as a substrate. The engineered Rb fragment (residues 386-928 of the native retinoblastoma protein; 62.3 kDa) contains the majority of the phosphorylation sites found in the native 106-kDa protein, as well as a tag of six histidine residues for ease of purification. Phosphorylated Rb substrate was captured by microfiltration on a nitrocellulose membrane and quantified using a phosphorimager as described above. For measurement of tight-binding inhibitors, the assay duration was extended to 60 minutes, during which the time-dependence of product formation was linear and initial rate conditions were met.

The next test deals with CDK2/Cyclin A (Homo sapiens, UniProt P24941). The test is described as follows: Inhibition of CDK2/Cyclin A Retinoblastoma Kinase Activity. The test is classed as biochemical. Conditions: for Ki: apparent Ki, CDK2/proteolyzed cyclin A, Rb fragment substrate, 25 μM ATP; for inhibition at 0.05 µM: read-out: % inhibition of CDK2 (@ 0.05 μM), compound at 0.05 μM. Summed up:
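Radiometric filter-binding readout of phosphate transfer to an Rb substrate fragment by purified CDK2/truncated cyclin A at 10 or 19 nM. Run at pH 7.4 with 25 μM ATP, 30 °C, 60–75 min, linear rates; background without enzyme subtracted, Ki from competitive-inhibition models.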

Another test has as its system HCT-116 cell line. In words: Inhibition of cell growth, tetrazolium salt (MTT) assay. The test is classed as cell-based. Conditions: Homo sapiens, MTT; for IC50: HCT-116, 120 h, three to five days, read-out: HCT-116 IC50; for inhibition at 0.175 µM: HCT-116, HCT-116 cells, compound at 0.175 uM. The method, boiled down: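 First, cells were seeded in McCoy's 5A medium and held 4 h. Next, inhibitor concentrations in 0.5% (v/v) DMSO were applied for three to five days at 37° C, 5% CO2. Finally, after 4 h with 0.2 mg/mL MTT and medium removal, solubilized formazan was measured at 540 nm.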

Chain of human CDK4 and genetically truncated (1-264) cyclin D3 (P11802 whole entry, the tested form may be a part): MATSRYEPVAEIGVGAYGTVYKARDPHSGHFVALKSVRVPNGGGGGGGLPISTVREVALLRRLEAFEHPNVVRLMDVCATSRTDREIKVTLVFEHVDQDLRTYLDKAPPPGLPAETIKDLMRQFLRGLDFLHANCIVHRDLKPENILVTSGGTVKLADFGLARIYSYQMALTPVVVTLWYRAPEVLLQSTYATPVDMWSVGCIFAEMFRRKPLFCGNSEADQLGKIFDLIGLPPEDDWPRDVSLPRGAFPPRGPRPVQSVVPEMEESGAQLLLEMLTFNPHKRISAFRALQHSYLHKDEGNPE
Chain of human CDK4 and genetically truncated (1-264) cyclin D3 (P30281 1-264 partner): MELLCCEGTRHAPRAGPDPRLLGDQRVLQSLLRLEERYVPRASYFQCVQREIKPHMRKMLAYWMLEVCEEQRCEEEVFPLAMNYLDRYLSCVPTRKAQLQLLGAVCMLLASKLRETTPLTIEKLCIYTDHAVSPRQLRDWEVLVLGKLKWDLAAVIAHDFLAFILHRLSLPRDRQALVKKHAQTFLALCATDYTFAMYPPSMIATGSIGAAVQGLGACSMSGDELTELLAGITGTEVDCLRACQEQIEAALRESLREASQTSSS

As to `CN(C)S(=O)(=O)N1CCC(Nc2nc(N)c(C(=O)c3c(F)cccc3F)s2)CC1` [Example E1, 4-[4-Amino-5-(2,6-difluoro-benzoyl)-thiazol-2-ylamino]-piperidine-1-sulfonic acid dimethylamide], the Ki was 22 nM in test [1] and 14 nM at CDK2/Cyclin A.
On the same counts, the results for `Nc1nc(NC2CCNCC2)sc1C(=O)c1c(F)cccc1F` [Example A6, [4-Amino-2-(piperidin-4-ylamino)-thiazol-5-yl]-(2,6-difluoro-phenyl)-methanone] are 830 nM and 1000 nM.
On the same counts, the results for `Nc1nc(NC2CCN(S(=O)(=O)c3ccc(-n4ccnc4)cc3)CC2)sc1C(=O)c1c(F)cccc1F` [Example G30, 1-{4-Amino-2-[1-(4-imidazol-1-yl-benzenesulfonyl)-piperidin-4-ylamino]-thiazol-5-yl}-1-(2,6-difluoro-phenyl)-methanone] are 0.45 nM and 0.31 nM.
In the case of `CS(=O)(=O)N1CC[C@H](Nc2nc(N)c(C(=O)c3c(F)cccc3F)s2)C1` [Example F41, [4-3S-Amino-2-(1-methanesulfonyl-pyrrolidin-3-ylamino)-thiazol-5-yl]-(2,6-difluoro-phenyl)-methanone], the Ki in test [1] stood at 1600 nM; at CDK2/Cyclin A, 750 nM.
In the case of `Nc1nc(NC2CCN(S(=O)(=O)c3cncc(Cl)n3)CC2)sc1C(=O)c1c(F)cccc1F` [Example F49, {4-Amino-2-[1-(6-chloro-pyrazine-2-sulfonyl)-piperidin-4-ylamino]-thiazol-5-yl}-(2,6-difluoro-phenyl)-methanone], the Ki stood at 1.1 nM in test [1] and 0.46 nM at CDK2/Cyclin A.
Broadly, the IC50 is the concentration that gives 50% inhibition. Turning to `CC(=O)/C=C/C(=O)N1CCC(Nc2nc(N)c(C(=O)c3c(F)cccc3F)s2)CC1` [Example D16, 1-{4-[4-Amino-5-(2,6-difluoro-benzoyl)-thiazol-2-ylamino]-piperidin-1-yl}-pent-2(E)-ene-1,4-dione], the IC50 with HCT-116 cell line (first HCT-116 column (c4)) stood at 82 nM; with HCT-116 cell line (second HCT-116 column (c5)), 150 nM. The Ki in test [1] was found to be 140 nM.
For orientation: inhibition means the drop in the measured response relative to a control, in per cent. For the compound `COC(=O)[C@@H]1CCCN1CCCS(=O)(=O)N1CCC(Nc2nc(N)c(C(=O)c3c(F)cccc3F)s2)CC1` [Example V139], the inhibition at 0.175 µM with HCT-116 cell line is 0%. The inhibition at 0.05 µM on CDK2/Cyclin A was 79%.
In the same order, the values of `Cc1nnc(CCNCCCS(=O)(=O)N2CCC(Nc3nc(N)c(C(=O)c4c(F)cccc4F)s3)CC2)[nH]1` [Example V174] are 26% and 84%.
In the same order, the values of `Nc1ncccc1CNCCCS(=O)(=O)N1CCC(Nc2nc(N)c(C(=O)c3c(F)cccc3F)s2)CC1` [Example V151] are 0% and 79%.
Consider `Nc1nc(NC2CCN(S(=O)(=O)CCCNCCc3ccccn3)CC2)sc1C(=O)c1c(F)cccc1F` [Example V8], for which the inhibition at 0.175 µM in the test with HCT-116 cell line worked out at 18%. Besides, the inhibition at 0.05 µM at CDK2/Cyclin A amounted to 81%.
In the same order, the values of `COC(=O)CCCNCCCS(=O)(=O)N1CCC(Nc2nc(N)c(C(=O)c3c(F)cccc3F)s2)CC1` [Example V141] are 22% and 82%.
`C=C(C)CN(C)CCCS(=O)(=O)N1CCC(Nc2nc(N)c(C(=O)c3c(F)cccc3F)s2)CC1` [Example V137]: in the test on HCT-116 cell line, the inhibition at 0.175 µM came to 78%. Further, on CDK2/Cyclin A, the inhibition at 0.05 µM is 76%.
As for `CCc1cccc(NCCCS(=O)(=O)N2CCC(Nc3nc(N)c(C(=O)c4c(F)cccc4F)s3)CC2)n1` [Example V113], the inhibition at 0.175 µM with HCT-116 cell line was 19%. Moreover, the inhibition at 0.05 µM at CDK2/Cyclin A is 79%.
On the same counts, the results for `CCCNCCCS(=O)(=O)N1CCC(Nc2nc(N)c(C(=O)c3c(F)cccc3F)s2)CC1` [Example V56] are 19% and 83%.
In the same order, the values of `Nc1nc(NC2CCN(S(=O)(=O)CCCNCCCn3ccnc3)CC2)sc1C(=O)c1c(F)cccc1F` [Example V3] are 17% and 84%.
In the same order, the values of `Nc1nc(NC2CCN(S(=O)(=O)CCCNCCN3CCCCC3)CC2)sc1C(=O)c1c(F)cccc1F` [Example V5] are 7% and 79%.
As for `Nc1nc(NC2CCN(S(=O)(=O)CCCNCCc3ccncc3)CC2)sc1C(=O)c1c(F)cccc1F` [Example V94], the inhibition at 0.175 µM in the test on HCT-116 cell line worked out at 0%. The inhibition at 0.05 µM at CDK2/Cyclin A was found to be 87%.
In the same order, the values of `Nc1nc(NC2CCN(S(=O)(=O)CCCN3CCN4CCCC4C3)CC2)sc1C(=O)c1c(F)cccc1F` (stereo not shown) [Example V152] are 0% and 78%.
In the same order, the values of `Nc1nc(NC2CCN(S(=O)(=O)CCCNC3CCCC3)CC2)sc1C(=O)c1c(F)cccc1F` [Example V75] are 19% and 88%.
For `Nc1nc(NC2CCN(S(=O)(=O)CCCNCCc3cccnc3)CC2)sc1C(=O)c1c(F)cccc1F` [Example V114], the inhibition at 0.175 µM in the test on HCT-116 cell line was 17%. For the same compound, the inhibition at 0.05 µM on CDK2/Cyclin A is 86%.
Consider `CN(C)CCN(C)CCCS(=O)(=O)N1CCC(Nc2nc(N)c(C(=O)c3c(F)cccc3F)s2)CC1` [Example V95], for which the inhibition at 0.175 µM in the test with HCT-116 cell line turned out to be 3%. On CDK2/Cyclin A, the inhibition at 0.05 µM worked out at 70%.
On the same counts, the results for `CC1=NNC(=O)C1CNCCCS(=O)(=O)N1CCC(Nc2nc(N)c(C(=O)c3c(F)cccc3F)s2)CC1` (stereo not shown) [Example V172] are 11% and 81%.
In the case of `Nc1nc(NC2CCN(S(=O)(=O)CCCNC3CCCCCC3)CC2)sc1C(=O)c1c(F)cccc1F` [Example V159], in the test with HCT-116 cell line, the inhibition at 0.175 µM was found to be 8%. In addition, the inhibition at 0.05 µM on CDK2/Cyclin A is 88%.
With `Nc1nc(NC2CCN(S(=O)(=O)CCCN3CCC(CCO)CC3)CC2)sc1C(=O)c1c(F)cccc1F` [Example V134], in the test with HCT-116 cell line, the inhibition at 0.175 µM stood at 8%. For the same compound, the inhibition at 0.05 µM at CDK2/Cyclin A turned out to be 80%.
Consider `C[C@H](NCCCS(=O)(=O)N1CCC(Nc2nc(N)c(C(=O)c3c(F)cccc3F)s2)CC1)C(N)=O` [Example V121], for which the inhibition at 0.175 µM in the test with HCT-116 cell line was determined as 4%. The inhibition at 0.05 µM on CDK2/Cyclin A was 77%.
On the same counts, the results for `CCN(CCO)CCCS(=O)(=O)N1CCC(Nc2nc(N)c(C(=O)c3c(F)cccc3F)s2)CC1` [Example V51] are 0% and 79%.
Regarding `COCCN(C)CCCS(=O)(=O)N1CCC(Nc2nc(N)c(C(=O)c3c(F)cccc3F)s2)CC1` [Example V107], the inhibition at 0.175 µM in the test on HCT-116 cell line was determined as 36%. Also, the inhibition at 0.05 µM on CDK2/Cyclin A is 78%.
In the case of `Nc1nc(NC2CCN(S(=O)(=O)CCCN3CCOCC3)CC2)sc1C(=O)c1c(F)cccc1F` [Example V88], in the test with HCT-116 cell line, the inhibition at 0.175 µM stood at 17%. Besides, on CDK2/Cyclin A, the inhibition at 0.05 µM was found to be 77%.
Turning to `Cc1c(CNCCCS(=O)(=O)N2CCC(Nc3nc(N)c(C(=O)c4c(F)cccc4F)s3)CC2)cnn1C` [Example V173], the inhibition at 0.175 µM in the test with HCT-116 cell line turned out to be 0%. Besides, on CDK2/Cyclin A, the inhibition at 0.05 µM worked out at 85%.
On the same counts, the results for `Nc1cccc(CNCCCS(=O)(=O)N2CCC(Nc3nc(N)c(C(=O)c4c(F)cccc4F)s3)CC2)c1` [Example V149] are 0% and 92%.
